According to PubChem BioAssay (NCI):
“And” between values parts separate entries of the source, which are not always exact repeats. Equal values may be shown once.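 Protocol summary: plate cells (96-well), add compound at 5 concentrations, incubate 48 h, interpolate endpoints linearly. GI50 is the concentration that inhibits growth by half. The concentration for full growth arrest is given as TGI.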

Columns and labels:
Test in all cases: growth of human tumour cells (NCI), 48 h
DMS 114 small cell lung = test system: DMS 114 small cell lung
SNB-78 CNS = test system: SNB-78 CNS
M19-MEL melanoma = test system: M19-MEL melanoma
LXFL 529 NSCLC = test system: LXFL 529 NSCLC
XF 498 CNS = test system: XF 498 CNS
HOP-18 NSCLC = test system: HOP-18 NSCLC
DMS 273 small cell lung = test system: DMS 273 small cell lung
KM20L2 colon = test system: KM20L2 colon
DLD-1 colon = test system: DLD-1 colon
RXF-631 renal = test system: RXF-631 renal
NCI/ADR-RES ovarian = test system: NCI/ADR-RES ovarian
T-47D breast = test system: T-47D breast
MDA-MB-435 = test system: MDA-MB-435
BT-549 breast = test system: BT-549 breast

SMILES | TGI (DMS 114 small cell lung) | TGI (SNB-78 CNS) | TGI (M19-MEL melanoma) | TGI (LXFL 529 NSCLC) | TGI (XF 498 CNS) | TGI (HOP-18 NSCLC) | TGI (DMS 273 small cell lung) | TGI (KM20L2 colon) | TGI (DLD-1 colon) | TGI (RXF-631 renal) | TGI (NCI/ADR-RES ovarian) | TGI (T-47D breast) | TGI (MDA-MB-435) | TGI (BT-549 breast) | GI50 (T-47D breast)
O=C(CSc1nnc(-c2ccc(N=Cc3ccc(Cl)cc3)cc2)o1)Nc1ccccc1[N+](=O)[O-] | > 100 µM | > 100 µM | > 100 µM | > 100 µM | > 100 µM | > 100 µM | > 100 µM | > 100 µM |  |  |  |  |  |  | 
C/C(CC(=O)Nc1ccc([N+](=O)[O-])cc1)=N\NC(N)=O | > 62.6 µM | > 100 µM | > 100 µM | > 100 µM | > 100 µM | > 100 µM | > 100 µM | > 100 µM | > 100 µM |  |  |  |  |  | 
CC(=O)OC1COC(n2c(O)c(N=NC(N)=S)c3cc(Br)ccc32)C(OC(C)=O)C1OC(C)=O (stereo not drawn) | > 100 µM | > 100 µM | > 100 µM | > 100 µM | > 100 µM | > 100 µM | > 100 µM | > 100 µM | > 100 µM |  |  |  |  |  | 
C/C(=N\NS(=O)(=O)c1ccc(C)cc1)C(CN1CCCCC1)C(c1ccccc1)c1c(O)c2ccccc2oc1=O (stereo not drawn) |  | > 100 µM |  | > 100 µM | > 100 µM | > 100 µM |  | > 100 µM | > 100 µM |  |  |  |  |  | 
CCCCOC(=O)C1C2CCC(O2)C1C(=O)OCCCC (stereo not drawn) | > 55.7 µM | > 100 µM | > 100 µM |  | > 100 µM | > 100 µM | > 100 µM | > 81.2 µM | > 87.5 µM |  |  |  |  |  | 
COC(=O)C(=O)C(C(=O)C(=O)Nc1ccc(F)cc1)c1nc2ccc([N+](=O)[O-])cc2[nH]c1=O (stereo not drawn) |  | > 100 µM | > 100 µM | > 100 µM | > 100 µM | > 100 µM |  | > 100 µM | > 100 µM | > 100 µM |  |  |  |  | 
COc1ccc2c3c1O[C@]1(C)C34CCN(C)C(C2)C42C=C[C@@]1(OC)c1c(O)ccc(O)c12 | > 100 µM | > 100 µM |  | > 100 µM | > 100 µM | > 100 µM | > 100 µM | > 100 µM | > 100 µM |  |  |  |  |  | 
NC(=O)N/N=C(\CC1OC(=O)c2ccccc21)c1ccco1 (stereo not drawn) | > 100 µM |  | > 100 µM | > 100 µM |  | > 100 µM | > 100 µM | > 100 µM | > 100 µM | > 100 µM |  |  |  |  | 
COC(=O)N/N=C(\Cc1ccccc1)CN(C)C | > 100 µM | > 100 µM | > 100 µM | > 100 µM | > 100 µM |  | > 100 µM | > 100 µM | > 100 µM | > 100 µM |  |  |  |  | 
O=c1[nH]c2cc([N+](=O)[O-])ccc2nc1/C(=N/Nc1ccccc1)C(O)c1ccccc1Cl (stereo not drawn) | > 100 µM | > 100 µM | > 100 µM | > 100 µM | > 100 µM |  | > 100 µM | > 100 µM | > 100 µM |  |  |  |  |  | 
Nc1ccnc(=O)[nH]1 | > 100 µM | > 100 µM | > 100 µM | > 100 µM | > 100 µM | > 100 µM | > 100 µM | > 100 µM | > 100 µM | > 100 µM |  |  |  |  | 
CCOC(=O)N1CCN(C=S)CC1 | > 100 µM | > 100 µM | > 100 µM | > 100 µM |  | > 100 µM | > 100 µM | > 100 µM | > 100 µM | > 100 µM |  |  |  |  | 
O=c1[nH]c2cc(Cl)ccc2nc1/C(=N\O)C(O)c1cccc([N+](=O)[O-])c1 (stereo not drawn) | > 100 µM |  | > 100 µM | > 100 µM | > 100 µM | > 100 µM |  | > 100 µM | > 100 µM | > 100 µM |  |  |  |  | 
O=C(Nc1ccc(Cl)cc1)NS(=O)(=O)c1coc2cc(F)ccc2c1=O |  |  |  |  |  |  |  |  |  |  | > 100 µM | > 100 µM | > 100 µM | > 100 µM | 
CCOC(=O)P(=O)(O)c1ccc(N(C)Cc2ccccc2)cc1 |  |  |  |  |  |  |  |  |  |  | > 100 µM | > 100 µM | > 100 µM | > 100 µM | 
CCCCNc1nc(C#N)c(N)s1 |  | > 100 µM |  | > 100 µM | > 100 µM |  | > 100 µM | > 100 µM | > 100 µM | > 100 µM |  |  |  |  | 
O=C(c1cccs1)N(C(=S)N1CCN(c2ccccn2)CC1)c1ccccc1 | > 100 µM | > 100 µM | > 100 µM | > 100 µM | 84 µM | > 100 µM | > 100 µM | > 100 µM | > 100 µM |  |  |  |  |  | 
C(=C\c1cccs1)/c1cccc(/C=C/c2cccs2)n1 |  |  |  |  |  |  |  |  |  |  | > 100 µM | > 100 µM | > 100 µM | > 100 µM | 
N#Cc1c(-c2ccccc2)cc(-c2ccccc2)n(C2OC(CO)C(O)C(O)C2O)c1=S (stereo not drawn) |  |  |  |  |  |  |  |  |  |  | > 100 µM | 34.5 µM and > 100 µM | 44 µM and 67.9 µM | 80.6 µM and > 100 µM | 6.51 µM and 29.1 µM
Cn1cc2ccccc2c1-c1nc(F)nc(F)n1 | > 100 µM | > 100 µM | > 100 µM | > 100 µM | 90.6 µM |  | > 100 µM | > 100 µM | > 100 µM |  |  |  |  |  | 
CC1C2(C)OC(=N)C(C#N)(C(c3ccccc3)O2)C1(C#N)C#N (stereo not drawn) |  |  |  |  |  |  |  |  |  |  | > 100 µM | 55.3 µM | > 100 µM | > 100 µM | 
